Test results reported in patent publication US11459329B2, “Imidazopyridazine and imidazopyridine compounds and uses thereof” (Incyte Corporation, priority 2018, dated 2022).

target: ALK2 (aa 147-end) (Homo sapiens (Human), UniProt Q04771); assay: ALK2 HTRF Assay; type: biochemical; settings: 3 μM ATP, 0.5 nM ALK2, 2 hr, 25° C.; read-out: ALK2 IC50
Procedure: The enzymatic assays were conducted in white 384-well polystyrene plates in a final volume of 8 μL. The inhibitors were serially diluted in DMSO and added to the plate wells prior to addition of the other reaction components. The assays were carried out at 25° C. in the assay buffer (50 mM HEPES, pH 7.0, 10% Glycerol, 0.01% Brij50, 10 mM MgCl2, 1 mM EGTA, 5 mM DTT, and 0.01% BSA), containing 50 nM LANCE Ultra ULight™-DNA Topoisomerase 2-alpha peptide (Perkin Elmer TRF0130), and 3 μM ATP. The final concentration of DMSO in the assay was 1% and the enzyme concentration was 0.5 nM for ALK2. […] […] IC50 determination was performed by fitting percent control activity versus the log of the inhibitor concentration using the IDBS XLFit and GraphPad Prism 5.0 software.

Sequence of ALK2 (aa 147-end) (Q04771 147-509): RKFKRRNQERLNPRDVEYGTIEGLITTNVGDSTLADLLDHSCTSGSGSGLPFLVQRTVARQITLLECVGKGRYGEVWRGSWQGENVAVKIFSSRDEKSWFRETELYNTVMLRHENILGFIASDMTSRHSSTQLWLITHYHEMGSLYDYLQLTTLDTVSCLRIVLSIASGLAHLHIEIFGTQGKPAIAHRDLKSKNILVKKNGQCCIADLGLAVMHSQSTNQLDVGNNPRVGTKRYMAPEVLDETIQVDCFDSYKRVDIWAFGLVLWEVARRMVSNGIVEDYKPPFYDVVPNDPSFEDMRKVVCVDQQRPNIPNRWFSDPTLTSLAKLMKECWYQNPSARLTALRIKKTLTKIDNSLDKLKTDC

`Cc1cnn(-c2ccc3c(-c4cnc5cc(-c6ccc(CN7CCC(C)(O)CC7)cc6)c(C)nn45)ccnc3n2)n1` [Example 68, 4-methyl-1-(4-(6-methyl-3-(7-(4-methyl-2H-1,2,3-triazol-2-yl)-1,8-naphthyridin-4-yl)imidazo[1,2-b]pyridazin-7-yl)benzyl)piperidin-4-ol] and `Cc1cnn(-c2ccc3c(-c4cnc5cc(-c6ccc(CN7CC[C@](C)(O)C7)cc6)c(C)nn45)ccnc3n2)n1` [Example 66, (S)-3-methyl-1-(4-(6-methyl-3-(7-(4-methyl-2H-1,2,3-triazol-2-yl)-1,8-naphthyridin-4-yl)imidazo[1,2-b]pyridazin-7-yl)benzyl)pyrrolidin-3-ol] cannot be ordered by IC50: under 1 nM for the first, under 1 nM for the second.

Compared with `Cc1nn2c(-c3ccnc4nc(-c5ccn(C)n5)ccc34)cnc2cc1-c1ccc(CN2CCC2)cc1` [Example 46, 5-(7-(4-(Azetidin-1-ylmethyl)phenyl)-6-methylimidazo[1,2-b]pyridazin-3-yl)-2-(1-methyl-1H-pyrazol-3-yl)-1,8-naphthyridine], `CCn1cnc(-c2ccc3c(-c4cnc5cc(-c6ccc(CN7CCC7)cc6)c(C)nn45)ccnc3n2)c1` [Example 56, 5-(7-(4-(Azetidin-1-ylmethyl)phenyl)-6-methylimidazo[1,2-b]pyridazin-3-yl)-2-(1-ethyl-1H-imidazol-4-yl)-1,8-naphthyridine] is lower in IC50: 5 to 100 nM for the first, 1 to 5 nM for the second.

`CCn1cnc(-c2ccc3c(-c4cnc5cc(-c6ccc(CN7CCOCC7)cc6)c(C)nn45)ccnc3n2)c1` [Example 53, 4-(4-(3-(7-(1-Ethyl-1H-imidazol-4-yl)-1,8-naphthyridin-4-yl)-6-methylimidazo[1,2-b]pyridazin-7-yl)benzyl)morpholine] and `CCn1cnc(-c2ccc3c(-c4cnc5cc(-c6ccc(CN7CCC(O)CC7)cc6)c(C)nn45)ccnc3n2)c1` [Example 71, 1-(4-(3-(7-(1-Ethyl-1H-imidazol-4-yl)-1,8-naphthyridin-4-yl)-6-methylimidazo[1,2-b]pyridazin-7-yl)benzyl)piperidin-4-ol] fall in the same range of IC50: 1 to 5 nM for the first, 1 to 5 nM for the second.

First: Cc1cn2c(-c3ccnc4ccccc34)cnc2cc1-c1cnn(C2CCNCC2)c1 [Example 35, 4-(6-methyl-7-(1-(piperidin-4-yl)-1H-pyrazol-4-yl)imidazo[1,2-a]pyridin-3-yl)quinoline]
Second: Cc1nn2c(-c3ccnc4ccccc34)cnc2cc1-c1ccc(N2CCNCC2)cc1 [Example 1, 4-(6-Methyl-7-(4-(piperazin-1-yl)phenyl)imidazo[1,2-b]pyridazin-3-yl)quinoline]
The IC50 of the first is higher: 1 to 5 nM for the first, under 1 nM for the second.

`Cc1nn2c(-c3ccnc4nc(-c5ccn(C)n5)ccc34)cnc2cc1-c1cnn(C(C)C)c1` [Example 45, 5-(7-(1-Isopropyl-1H-pyrazol-4-yl)-6-methylimidazo[1,2-b]pyridazin-3-yl)-2-(1-methyl-1H-pyrazol-3-yl)-1,8-naphthyridine] and `Cc1nn2c(-c3ccnc4nc(-c5cnccn5)ccc34)cnc2cc1-c1cnn(C(C)C)c1` [Example 43, 5-(7-(1-Isopropyl-1H-pyrazol-4-yl)-6-methylimidazo[1,2-b]pyridazin-3-yl)-2-(pyrazin-2-yl)-1,8-naphthyridine] fall in the same range of IC50: 1 to 5 nM for the first, 1 to 5 nM for the second.

`Cc1cc(-c2ccc3c(-c4cnc5cc(-c6ccc(CN7CCC7)cc6)c(C)nn45)ccnc3n2)n[nH]1` [Example 48, 5-(7-(4-(Azetidin-1-ylmethyl)phenyl)-6-methylimidazo[1,2-b]pyridazin-3-yl)-2-(5-methyl-1H-pyrazol-3-yl)-1,8-naphthyridine] and `Cc1cc(-c2ccc3c(-c4cnc5cc(-c6ccc(CN7CCOCC7)cc6)c(C)nn45)ccnc3n2)n[nH]1` [Example 49, 4-(4-(6-methyl-3-(7-(5-methyl-1H-pyrazol-3-yl)-1,8-naphthyridin-4-yl)imidazo[1,2-b]pyridazin-7-yl)benzyl)morpholine] cannot be ordered by IC50: under 1 nM for the first, under 1 nM for the second.

Compared with `Cc1nn2c(-c3ccnc4nc(-c5ccccn5)ccc34)cnc2cc1-c1cnn([C@H]2CC[C@H](O)CC2)c1` [Example 37, (1R,4R)-4-(4-(6-Methyl-3-(7-(pyridin-2-yl)-1,8-naphthyridin-4-yl)imidazo[1,2-b]pyridazin-7-yl)-1H-pyrazol-1-yl)cyclohexan-1-ol], `Cc1nn2c(-c3ccnc4nc(-c5cnccn5)ccc34)cnc2cc1-c1cnn(C2CCOCC2)c1` [Example 44, 5-(6-Methyl-7-(1-(tetrahydro-2H-pyran-4-yl)-1H-pyrazol-4-yl)imidazo[1,2-b]pyridazin-3-yl)-2-(pyrazin-2-yl)-1,8-naphthyridine] is higher in IC50: under 1 nM for the first, 1 to 5 nM for the second. The first is the more potent here.

Compared with `Cc1nn2c(-c3ccnc4ncccc34)cnc2cc1-c1ccc(N2CCNCC2)cc1` [Example 27, 4-(6-methyl-7-(4-(piperazin-1-yl)phenyl)imidazo[1,2-b]pyridazin-3-yl)-1,8-naphthyridine], `Cc1nn2c(-c3ccc(C#N)c4ncccc34)cnc2cc1-c1ccc(N2CCNCC2)cc1` [Example 28, 5-(6-methyl-7-(4-(piperazin-1-yl)phenyl)imidazo[1,2-b]pyridazin-3-yl)quinoline-8-carbonitrile] is higher in IC50: under 1 nM for the first, 5 to 100 nM for the second.

`CCn1cnc(-c2ccc3c(-c4cnc5cc(-c6ccc(CN7CC(F)(F)C7)cc6)c(C)nn45)ccnc3n2)c1` [Example 57] and `Cc1cnn(-c2ccc3c(-c4cnc5cc(-c6ccc(CN7CC(C)(O)C7)cc6)c(C)nn45)ccnc3n2)n1` [Example 69, 3-methyl-1-(4-(6-methyl-3-(7-(4-methyl-2H-1,2,3-triazol-2-yl)-1,8-naphthyridin-4-yl)imidazo[1,2-b]pyridazin-7-yl)benzyl)azetidin-3-ol] fall in the same range of IC50: 1 to 5 nM for the first, 1 to 5 nM for the second.

First: Cc1nn2c(-c3ccnc4cc(C(O)c5cc(F)cc(F)c5)ccc34)cnc2cc1-c1ccc(N2CCNCC2)cc1 (stereo not shown) [Example 25, (3,5-difluorophenyl)(4-(6-methyl-7-(4-(piperazin-1-yl)phenyl)imidazo[1,2-b]pyridazin-3-yl)quinolin-7-yl)methanol]
Second: Cc1nn2c(-c3ccnc4cc(CO)ccc34)cnc2cc1-c1ccc(N2CCNCC2)cc1 [Example 26, (4-(6-methyl-7-(4-(piperazin-1-yl)phenyl)imidazo[1,2-b]pyridazin-3-yl)quinolin-7-yl)methanol]
The IC50 of the first is lower: 1 to 5 nM for the first, 5 to 100 nM for the second.

`Cc1cnn(-c2ccc3c(-c4cnc5cc(-c6ccc(CN7CCN(C)CC7)cc6)c(C)nn45)ccnc3n2)n1` [Example 70, 2-(4-methyl-2H-1,2,3-triazol-2-yl)-5-(6-methyl-7-(4-((4-methylpiperazin-1-yl)methyl)phenyl)imidazo[1,2-b]pyridazin-3-yl)-1,8-naphthyridine] and `Cc1cnn(-c2ccc3c(-c4cnc5cc(-c6cnn(C(C)C)c6)c(C)nn45)ccnc3n2)n1` [Example 61, 5-(7-(1-Isopropyl-1H-pyrazol-4-yl)-6-methylimidazo[1,2-b]pyridazin-3-yl)-2-(4-methyl-2H-1,2,3-triazol-2-yl)-1,8-naphthyridine] fall in the same range of IC50: 1 to 5 nM for the first, 1 to 5 nM for the second.

`N#Cc1nn2c(-c3ccnc4ccccc34)cnc2cc1-c1ccc(N2CCNCC2)cc1` [Example 6, 7-(4-(piperazin-1-yl)phenyl)-3-(quinolin-4-yl)imidazo[1,2-b]pyridazine-6-carbonitrile] and `OCc1nn2c(-c3ccnc4ccccc34)cnc2cc1-c1ccc(N2CCNCC2)cc1` [Example 7, (7-(4-(Piperazin-1-yl)phenyl)-3-(quinolin-4-yl)imidazo[1,2-b]pyridazin-6-yl)methanol] cannot be ordered by IC50: under 1 nM for the first, under 1 nM for the second.

First: Cc1nn2c(-c3ccnc4nc(-c5ccn(C)n5)ccc34)cnc2cc1-c1ccc(C(=O)N(C)C)cc1 [Example 47, N,N-dimethyl-4-(6-methyl-3-(7-(1-methyl-1H-pyrazol-3-yl)-1,8-naphthyridin-4-yl)imidazo[1,2-b]pyridazin-7-yl)benzamide]
Second: Cc1nn2c(-c3ccnc4nc(-c5ncccn5)ccc34)cnc2cc1-c1cnn(C(C)C)c1 [Example 40, 5-(7-(1-Isopropyl-1H-pyrazol-4-yl)-6-methylimidazo[1,2-b]pyridazin-3-yl)-2-(pyrimidin-2-yl)-1,8-naphthyridine]
The IC50 of the first is higher: 1 to 5 nM for the first, under 1 nM for the second. The second is the more potent here.

`NC(=O)c1nn2c(-c3ccnc4ccccc34)cnc2cc1-c1ccc(N2CCNCC2)cc1` [Example 5, 7-(4-(Piperazin-1-yl)phenyl)-3-(quinolin-4-yl)imidazo[1,2-b]pyridazine-6-carboxamide] and `Cc1nn2c(-c3ccnc4cc(-c5ccncc5)ccc34)cnc2cc1-c1ccc(N2CCN(C)CC2=O)cc1` [Example 12, 4-Methyl-1-(4-(6-methyl-3-(7-(pyridin-4-yl)quinolin-4-yl)imidazo[1,2-b]pyridazin-7-yl)phenyl)piperazin-2-one] fall in the same range of IC50: 5 to 100 nM for the first, 5 to 100 nM for the second.

First: Cc1nn2c(-c3ccnc4cc(-c5ccncc5)ccc34)cnc2cc1-c1ccc(CN2CCC[C@H]2C)c(F)c1 [Example 15, (R)-4-(7-(3-fluoro-4-((2-methylpyrrolidin-1-yl)methyl)phenyl)-6-methylimidazo[1,2-b]pyridazin-3-yl)-7-(pyridin-4-yl)quinoline]
Second: Cc1nn2c(-c3ccnc4cc(-c5ccncc5)ccc34)cnc2cc1-c1cccc(N2CCN(C)CC2)c1 [Example 13, 4-(6-Methyl-7-(3-(4-methylpiperazin-1-yl)phenyl)imidazo[1,2-b]pyridazin-3-yl)-7-(pyridin-4-yl)quinolone]
The IC50 of the first is lower: 1 to 5 nM for the first, 5 to 100 nM for the second.

For `Cc1nn2c(-c3ccnc4cc(-c5ccncc5)ccc34)cnc2cc1-c1cnn([C@H]2CC[C@H](O)CC2)c1` [Example 10, (trans)-4-(4-(6-Methyl-3-(7-(pyridin-4-yl)quinolin-4-yl)imidazo[1,2-b]pyridazin-7-yl)-1H-pyrazol-1-yl)cyclohexan-1-ol], the IC50 was 1 to 5 nM.
